Earlier results in patent publication US7270977B2, “Polypeptides for identifying fungicidally active compounds” (priority 2001, dated 2007).
“Also recorded” adds a separate entry of the source.

Legend:
C. albicans cells = conditions: cited from earlier work; for effect on C. albicans: in words
Candida pseudotropicalis = conditions: in words; cited from earlier work
[1] = target: recombinant IMPDH from Pneumocystis carinii (Pneumocystis carinii, UniProt Q12658); conditions: recombinant P. carinii IMPDH; read-out: concentration resulting in 50% inhibition of the activity of the recombinant IMPDH; cited from earlier work
Hansenula anomala = conditions: in words; cited from earlier work
Candida guilliermondii = conditions: in words; cited from earlier work
Candida krusei = conditions: in words; cited from earlier work
Cryptococcus neoformans = conditions: in words; cited from earlier work
S. cerevisiae = conditions: in words; cited from earlier work

Sequence of recombinant IMPDH from Pneumocystis carinii (Q12658 76-529): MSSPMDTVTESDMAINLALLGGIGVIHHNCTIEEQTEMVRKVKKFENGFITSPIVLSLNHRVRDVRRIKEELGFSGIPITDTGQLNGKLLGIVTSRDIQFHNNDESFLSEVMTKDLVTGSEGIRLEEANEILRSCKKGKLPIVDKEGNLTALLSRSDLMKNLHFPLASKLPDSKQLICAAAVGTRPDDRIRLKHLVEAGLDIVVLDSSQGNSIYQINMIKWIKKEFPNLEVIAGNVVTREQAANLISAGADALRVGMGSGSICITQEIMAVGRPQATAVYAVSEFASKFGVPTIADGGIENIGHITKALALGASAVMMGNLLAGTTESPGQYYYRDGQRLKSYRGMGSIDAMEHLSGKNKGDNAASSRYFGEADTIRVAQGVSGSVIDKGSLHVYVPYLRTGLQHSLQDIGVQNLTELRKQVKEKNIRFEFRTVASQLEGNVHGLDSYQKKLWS

Structure (SMILES) | effect on C. albicans (C. albicans cells) | effect on growth in vitro (Candida pseudotropicalis) | concentration inhibiting growth of C. albicans cells (C. albicans cells; wild-type cells) | IC50 [1] | effect on growth in vitro (Hansenula anomala) | effect on growth in vitro (Candida guilliermondii) | effect on growth in vitro (Candida krusei) | effect on growth in vitro (Cryptococcus neoformans) | effect on growth in vitro (S. cerevisiae)
NC(=O)c1ncn([C@@H]2O[C@H](CO)[C@@H](O)[C@H]2O)c1O [mizoribine] | virtually ineffective | – | – | – | – | – | – | – | –
COc1c(C)c2c(c(O)c1C/C=C(\C)CCC(=O)O)C(=O)OC2 [mycophenolic acid] | inhibits in vitro the growth; also recorded: acts fungistatically | ineffective | 1 µg/mL | 25 µM | ineffective | ineffective | ineffective | inhibits in vitro the growth | ineffective; also recorded: no effect
